Patent US8987195B2 (priority 2012, dated 2015)

Target: HCV NS3/4A protease genotype 1b (Hepatitis C virus genotype 1b, UniProt P26663)
Assay: HCV NS3/4A protease time-resolved fluorescence (TRF) assay, Ki against genotype 1b
Assay type: biochemical
Settings: IC50 [gt-1b] (nM), NS3/4A genotype 1b, enzyme 0.2 nM
Description: Measuring NS3/4A Inhibitory Activity (Ki) Against Genotype 1b, Against A156T Mutants and Against Genotype 3a
One assay for measuring inhibitory activity is HCV NS3 protease time-resolved fluorescence (TRF) assay as described below and in Mao et al., Anal. Biochem. 373:1-8, 2008 and International Patent Application Publication WO 2006/102087. A NS3 protease assay can be performed, for example, in a final volume of 20 μl assay buffer containing 50 mM HEPES, pH 7.5, 150 mM NaCl, 15% glycerol, 0.15% TRITON X-100, 10 mM DTT, and 0.1% PEG 8000. NS3 and NS4A protease is pre-incubated with various concentrations of inhibitors in DMSO for 30 min. The reaction is initiated by adding the TRF peptide substrate (final concentration 25 nM). NS3 mediated hydrolysis of the substrate was run for 2.5 hours at room temperature. Product fluorescence is detected using A Pherastar Plus plate reader (BMG) or Envision (Perkin Elmer Life and Analytical Sciences with excitation at 340 nm and emission at 615 nm using the appropriate delay time optimized for the europium fluorescence probe. Testing concentrations of different enzyme forms are selected to result in a signal to background ratio (S/B) of 10-30. IC50 values are derived using a standard four-parameter fit to the data. Ki values are derived from IC50 values using the following formula, IC50=Ki(1+[S]/KM), Eqn (1), where [S] is the concentration of substrate peptide in the reaction and KM is the Michaelis constant. See P. Gallinari et al., 38 BIOCHEM. 5620-32 (1999); P. Gallinari et al., 72 J. VIROL. 6758-69 (1998); M. Taliani et al., 240 ANAL. BIOCHEM. 60-67 (1996); Mao et al., Analytical Biochemistry 373: 1-8, 2008.
The assay described above was run against genotype 1b at a concentration of 0.2 nM, against A156T mutant strains at a concentration of 0.4 nM, and against genotype 3a at a concentration of 0.025 nM.

Compound	IC50 [nM]	IC50 (K+ salt) [nM]
COc1ccc2nc(C(F)(F)F)c3c(c2c1)OC[C@]1(C[C@H]2C(=O)N[C@]4(C(=O)NS(=O)(=O)C5(C)CC5)C[C@H]4/C=C\CCCCC[C@H](NC(=O)OC(C)(C)C)C(=O)N2C1)O3 [Example 8, tert-Butyl ((2′R,6′S,13a′S,14a′R,16a′S,Z)-9-methoxy-14a′-(((1-methylcyclopropyl)sulfonyl)carbamoyl)-5′,16′-dioxo-5-(trifluoromethyl)-3′,5′,6′,7′,8′,9′,10′,11′, 13a′,14′,14a′,15′,16′,16a′-tetradecahydro-1H,2H-spiro[[1,4]dioxino[2,3-c]quinoline-3,2′-cyclopropa[e]pyrrolo[1,2-a][1,4]diazacyclopentadecin]-6′-yl)carbamate]	0.011	
COc1ccc2nc(C)c3c(c2c1)CC[C@]1(C[C@H]2C(=O)N[C@]4(C(=O)NS(=O)(=O)C5(C)CC5)C[C@H]4/C=C\CCCCC[C@H](NC(=O)OC(C)(C)C)C(=O)N2C1)O3 [Example 9, tert-Butyl [(2R,6S,12Z,13aS,14aR,16aS)-9′-methoxy-5′-methyl-14a-{[(1-methylcyclopropyl)sulfonyl]carbamoyl}-5,16-dioxo-1,1′,2′,5,6,7,8,9,10,11,13a,14,14a,15, 16,16a-hexadecahydrospiro[cyclopropa[e]pyrrolo[1,2-a][1,4]diazacyclopentadecine-2,3′-pyrano[2,3-c]quinolin]-6-yl]carbamate]		0.006
COc1ccc2nc(C(F)F)c3c(c2n1)CC[C@]1(C[C@H]2C(=O)N[C@]4(C(=O)NS(=O)(=O)C5(C)CC5)C[C@H]4/C=C\CCCCC[C@H](NC(=O)OC(C)(C)C)C(=O)N2C1)O3 [Example 12, tert-Butyl ((2R,6S,13aS,14aR,16aS,Z)-6′-(difluoromethyl)-2′-methoxy-14a-(((1-methylcyclopropyl)sulfonyl)carbamoyl)-5,16-dioxo-3,5,6,7,8,9,9′,10,10′,11,13a,14,14a, 15,16,16a-hexadecahydro-1H-spiro[cyclopropa[e]pyrrolo[1,2-a][1,4]diazacyclopentadecine-2,8′-pyrano[2,3-c][1,5]naphthyridin]-6-yl)carbamate]	0.007	
COc1ccc2nc(C(C)C)c3c(c2c1)[C@H](F)C[C@]1(C[C@H]2C(=O)N[C@]4(C(=O)NS(=O)(=O)C5(C)CC5)C[C@H]4/C=C\CCCCC[C@H](NC(=O)OC(C)(C)C)C(=O)N2C1)O3 [Example 32, tert-butyl ((1′R,2S,6S,13aS,14aR,16aS,Z)-1′-fluoro-5′-isopropyl-9′-methoxy-14a-(((1-methylcyclopropyl)sulfonyl)carbamoyl)-5,16-dioxo-1′,2′,3,5,6,7,8,9,10,11,13a,14, 14a,15,16,16a-hexadecahydro-1H-spiro[cyclopropa[e]pyrrolo[1,2-a][1,4]diazacyclopentadecine-2,3′-pyrano[2,3-c]quinolin]-6-yl)carbamate]	0.024	
CC(C)(C)OC(=O)N[C@H]1CCCCC/C=C\[C@@H]2C[C@@]2(C(=O)NS(=O)(=O)C2(C)CC2)NC(=O)[C@@H]2C[C@]3(CCc4c(c(C(F)(F)F)nc5ccc(OCCN6CCCCC6)cc45)O3)CN2C1=O [Example 67, tert-Butyl ((2R,6S,13aS,14aR,16aS,Z)-14a-(((1-methylcyclopropyl)sulfonyl)carbamoyl)-5,16-dioxo-9′(2-(piperidin-1-yl)ethoxy)-5′-(trifluoromethyl)-1′,2′,3,5,6,7,8,9,10,11,13a,14,14a,15,16,16a-hexadecahydro-1H-spiro[cyclopropa[e]pyrrolo[1,2-a][1,4]diazacyclopentadecine-2,3′-pyrano[2,3-c]quinolin]-6-yl)carbamate]	0.021	
Cc1nc2ccccc2c2c1O[C@]1(CC2)C[C@H]2C(=O)N[C@]3(C(=O)NS(=O)(=O)C4(C)CC4)C[C@H]3/C=C\CCCCC[C@H](NC(=O)OC3CCN(C)CC3)C(=O)N2C1 [Example 117, 1-methylpiperidin-4-yl [(2R,6S,12Z,13aS,14aR,16aS)-5′-methyl-14a-{[(1-methylcyclopropyl)sulfonyl]carbamoyl}-5,16-dioxo-1,1′,2′,5,6,7,8,9,10,11,13a,14,14a,15,16,16a-hexadecahydrospiro[cyclopropa[e]pyrrolo[1,2-a][1,4]diazacyclopentadecine-2,3′-pyrano[2,3-c]quinolin]-6-yl]carbamate]	0.056	
COc1ccc2nc(C)c3c(c2c1)CC[C@]1(C[C@H]2C(=O)N[C@]4(C(=O)NS(=O)(=O)C5(C)CC5)C[C@H]4/C=C\CCCCC[C@H](NC(=O)OC4(C)CCC4)C(=O)N2C1)O3 [Example 186, 1-methylcyclobutyl [(2R,6S,12Z,13aS,14aR,16aS)-9′-methoxy-5′-methyl-14a-{[(1-methylcyclopropyl)sulfonyl]carbamoyl}-5,16-dioxo-1,1′,2′,5,6,7,8,9,10,11,13a,14,14a,15,16,16a-hexadecahydrospiro[cyclopropa[e]pyrrolo[1,2-a][1,4]diazacyclopentadecine-2,3′-pyrano[2,3-c]quinolin]-6-yl]carbamate]		0.009
Cc1nc2cc(F)c(F)cc2c2c1O[C@]1(CC2)C[C@H]2C(=O)N[C@]3(C(=O)NS(=O)(=O)C4(C)CC4)C[C@H]3/C=C\CCCCC[C@H](NC(=O)OC3CCCCC3)C(=O)N2C1 [Example 203, cyclohexyl [(2R,6S,12Z,13aS,14aR,16aS)-8′,9′-difluoro-5′-methyl-14a-{[(1-methylcyclopropyl)sulfonyl]carbamoyl}-5,16-dioxo-1,1′,2′,5,6,7,8,9,10,11,13a,14,14a,15,16,16a-hexadecahydrospiro[cyclopropa[e]pyrrolo[1,2-a][1,4]diazacyclopentadecine-2,3′-pyrano[2,3-c]quinolin]-6-yl]carbamate]		0.015
Cc1nc2cc(F)c(F)cc2c2c1O[C@]1(CC2)C[C@H]2C(=O)N[C@]3(C(=O)NS(=O)(=O)C4(C)CC4)C[C@H]3/C=C\CCCCC[C@H](NC(=O)OC3CCC3)C(=O)N2C1 [Example 204, cyclobutyl [(2R,6S,12Z,13aS,14aR,16aS)-8′,9′-difluoro-5′-methyl-14a-{[(1-methylcyclopropyl)sulfonyl]carbamoyl}-5,16-dioxo-1,1′,2′,5,6,7,8,9,10,11,13a,14,14a,15,16,16a-hexadecahydrospiro[cyclopropa[e]pyrrolo[1,2-a][1,4]diazacyclopentadecine-2,3′-pyrano[2,3-c]quinolin]-6-yl]carbamate]		0.015
Cc1nc2ccc(OC(F)(F)F)cc2c2c1O[C@]1(CC2)C[C@H]2C(=O)N[C@]3(C(=O)NS(=O)(=O)C4(C)CC4)C[C@H]3/C=C\CCCCC[C@H](NC(=O)OC3(C)CCCC3)C(=O)N2C1 [Example 209, 1-methylcyclopentyl [(2R,6S,12Z,13aS,14aR,16aS)-5′-methyl-14a-{[(1-methylcyclopropyl)sulfonyl]carbamoyl}-5,16-dioxo-9′-(trifluoromethoxy)-1,1′,2′,5,6,7,8,9,10,11,13a,14,14a,15,16,16a-hexadecahydrospiro[cyclopropa[e]pyrrolo[1,2-a][1,4]diazacyclopentadecine-2,3′-pyrano[2,3-c]quinolin]-6-yl]carbamate]	0.03	
COc1ccc2nc(C)c3c(c2c1)CC[C@]1(C[C@H]2C(=O)N[C@]4(C(=O)NS(=O)(=O)C5(C)CC5)C[C@H]4/C=C\CCCCC[C@H](NC(=O)OC4(C5CC5)CC4)C(=O)N2C1)O3 [Example 212, 1,1′-bi(cyclopropyl)-1-yl [(2R,6S,12Z,13aS,14aR,16aS)-9′-methoxy-5′-methyl-14a-{[(1-methylcyclopropyl)sulfonyl]carbamoyl}-5,16-dioxo-1,1′,2′,5,6,7,8,9,10,11,13a,14,14a,15,16,16a-hexadecahydrospiro[cyclopropa[e]pyrrolo[1,2-a][1,4]diazcyclopentadecine-2,3′-pyrano[2,3-c]quinolin]-6-yl]carbamate]		0.003
COc1ccc2nc(C)c3c(c2c1)CC[C@]1(C[C@H]2C(=O)N[C@]4(C(=O)NS(=O)(=O)C5(C)CC5)C[C@H]4/C=C\CCCCC[C@H](NC(=O)OCC4CCC4)C(=O)N2C1)O3 [Example 213, cyclobutylmethyl [(2R,6S,12Z,13aS,14aR,16aS)-9′-methoxy-5′-methyl-14a-{[(1-methylcyclopropyl)sulfonyl]carbamoyl}-5,16-dioxo-1,1′,2′,5,6,7,8,9,10,11,13a,14,14a,15,16,16a-hexadecahydrospiro[cyclopropa[e]pyrrolo[1,2-a][1,4]diazacyclopentadecine-2,3′-pyrano[2,3-c]quinolin]-6-yl]carbamate]		0.004
